Measured values reported in patent publication US20030171545A1, “Novel Protein” (priority 1999, published 2003).
Entries after “also recorded” stand apart in the source; their conditions may differ.

What was measured:
LTRGW1 [1] = molecular target: T1, LTRGW1 (Homo sapiens, UniProt Q9NPC1); details: leukotriene binding to LTRGW1; Kamohara et al; cited from earlier work
T1 sequence (Q9NPC1 1-358): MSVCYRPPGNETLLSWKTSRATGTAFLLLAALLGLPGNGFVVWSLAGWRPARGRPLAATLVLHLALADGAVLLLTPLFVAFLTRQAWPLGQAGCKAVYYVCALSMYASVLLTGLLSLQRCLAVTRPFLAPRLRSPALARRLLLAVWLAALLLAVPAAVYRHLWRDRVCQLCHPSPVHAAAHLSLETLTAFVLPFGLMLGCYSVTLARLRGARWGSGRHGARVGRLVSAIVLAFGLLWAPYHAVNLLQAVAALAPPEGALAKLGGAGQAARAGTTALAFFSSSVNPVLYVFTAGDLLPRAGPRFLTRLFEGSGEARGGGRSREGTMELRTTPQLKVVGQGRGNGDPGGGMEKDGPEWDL

LTRGW1 [2] = molecular target: T1, LTRGW1; details: Kamohara et al; cited from earlier work
[3] = molecular target: T2, BLTR and LTRGW1 co-expressed (Homo sapiens, UniProt Q15722+Q9NPC1); test: [3H]LTB4 binding to membranes of transfected CHO cells, scintillation proximity assay; details: [3H]LTB4, membranes of transfected CHO cells; compared with BLTR or LTRGW1 alone; FIG. 2
T2 construct: expressed in transfected cells; host or cells: CHO
T2 sequence (Q15722 whole entry, one chain of several): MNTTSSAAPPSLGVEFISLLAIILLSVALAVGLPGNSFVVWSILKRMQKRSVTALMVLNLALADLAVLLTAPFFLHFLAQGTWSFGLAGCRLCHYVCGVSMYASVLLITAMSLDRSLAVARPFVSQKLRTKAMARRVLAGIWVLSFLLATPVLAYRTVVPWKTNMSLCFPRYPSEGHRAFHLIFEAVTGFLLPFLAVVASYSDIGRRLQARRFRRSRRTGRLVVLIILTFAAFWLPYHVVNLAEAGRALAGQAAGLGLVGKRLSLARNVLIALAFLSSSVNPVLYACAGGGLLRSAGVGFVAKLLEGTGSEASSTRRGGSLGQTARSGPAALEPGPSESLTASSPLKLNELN
Protocol: CHO cells were transfected with DNA as described in Example 1. [^3H] LTB4 binding to membrane preparations from transfected cells was measured using wheat germ agglutinin beads in a scintillation proximity assay. The assay was carried out in 50: g Hepes 20: g MgCl2 in a total assay volume of 100: g. [^3H] LTB4 was used to measure total binding. [^3H] LTB4 was then displaced with unlabelled LTB4 to measure non-specific binding (NSB). The binding of LTB4 to cells expressing BLTR cells co-expressing BLTR and LTRGW1 and cells expressing LTRGW1 is illustrated in FIG. 2.

BLTR = molecular target: T3, BLTR (Homo sapiens, UniProt Q15722); test: FLIPR intracellular calcium response to LTB4, CHO cells transfected with BLTR; assay type: cell-based; details: LTB4 10^-10 to 10^-7 M
T3 construct: expressed in transfected cells; host or cells: CHO
T3 sequence (Q15722 whole entry): as the sequence (Q15722 whole entry, one chain of several) above
Protocol: (§1) […] total DNA was transfected into CHO cells using the following transfection mix: 5 μg BLTR, pcDNA3 as needed to keep constant the amount of total DNA used, 1 μg pCMV-luciferase and BLTR-2 at various concentration. Responses to LTB4 (between 10^−10 and 10^−7 M) were measured using a FLIPR assay (Fluorescence Imaging Plate Reader—Molecular Devices) and values were normalised relative to the luciferase reading.

[4] = system: Mock transfected CHO cells; test: FLIPR intracellular calcium response to LTB4, mock transfected CHO cells; assay type: cell-based; details: LTB4 10^-10 to 10^-7 M, normalised to luciferase
Protocol: as §1

LTRGW1 [5] = test: FLIPR intracellular calcium response to LTB4, CHO cells transfected with LTRGW1 alone; assay type: cell-based, human
Protocol: […] Responses to LTB4 (between 10^−10 and 10^−7 M) were measured using a FLIPR assay (Fluorescence Imaging Plate Reader—Molecular Devices) and values were normalised relative to the luciferase reading.

BLTR/LTRGW1 = test: FLIPR intracellular calcium response to LTB4, CHO cells co-transfected with BLTR and LTRGW1; assay type: cell-based, human
Protocol: as §1

LTRGW1 [6] = molecular target: T1, LTRGW1; details: Yokomizo et al; cited from earlier work

## CCCCC/C=C\C[C@H](O)/C=C/C=C/C=C\[C@@H](O)CCCC(=O)O [12-epi-LTB4]
LTRGW1 [1]
  Forskolin-stimulated intracellular cAMP accumulation: inhibition

## CCCCCCCC[C@H](O)/C=C/C=C\C=C\[C@H](O)CCCC(=O)O [LTB3]
LTRGW1 [1]
  Forskolin-stimulated intracellular cAMP accumulation: inhibition

## CCCCC/C=C\C[C@@H](O)/C=C/C=C/C=C\[C@@H](O)CCCC(=O)O [LTB4]
LTRGW1 [2]
  Chemotaxis: induces chemotaxis
[3]
  LTB4 binding to cells co-expressing BLTR and LTRGW1: enhancement
BLTR
  Response to LTB4: Active
[4]
  Response to LTB4: Inactive
LTRGW1 [5]; CHO cells transfected with LTRGW1(274)
  Response to LTB4: Inactive
LTRGW1 [5]; CHO cells transfected with LTRGW1(275)
  Response to LTB4: Inactive
LTRGW1 [5]; CHO cells transfected with LTRGW1(276)
  Response to LTB4: Inactive
LTRGW1 [5]; LTRGW1 expressed alone in CHO cells
  Mobilisation of intracellular calcium in response to LTB4: does not induce a detectable mobilisation of intracellular calcium
BLTR/LTRGW1; CHO cells transfected with BLTR/LTRGW1(276), FLIPR
  Response to LTB4: Active
BLTR/LTRGW1; compared with BLTR alone, increase proportional to amount of LTRGW1 in transfection mix, FIG. 1
  Response of BLTR to LTB4 when LTRGW1 is co-expressed: increased
LTRGW1 [1]
  Forskolin-stimulated intracellular cAMP accumulation: inhibition
LTRGW1 [6]
  Cellular calcium: increases cellular calcium; also recorded: increases intracellular calcium

## CC/C=C\C/C=C\C[C@@H](O)/C=C/C=C/C=C\[C@@H](O)CCCC(=O)O [LTB5]
LTRGW1 [1]
  Forskolin-stimulated intracellular cAMP accumulation: inhibition
